Measurements from PubChem BioAssay AID720701 (Sanford-Burnham Center for Chemical Genomics, 2013).
Active and inactive are the calls of the source. How the calls were made is not given here.

What follows are compounds tested against Protein artemis (Homo sapiens) (UniProt Q96SD1) (assay: Artemis endonuclease inhibitor potency, dose response, biochemical, fluorescence intensity (AID 720701)). Settings: Recombinant Artemis endonuclease.
Protein artemis (Homo sapiens), sequence (Q96SD1 whole entry, looked up): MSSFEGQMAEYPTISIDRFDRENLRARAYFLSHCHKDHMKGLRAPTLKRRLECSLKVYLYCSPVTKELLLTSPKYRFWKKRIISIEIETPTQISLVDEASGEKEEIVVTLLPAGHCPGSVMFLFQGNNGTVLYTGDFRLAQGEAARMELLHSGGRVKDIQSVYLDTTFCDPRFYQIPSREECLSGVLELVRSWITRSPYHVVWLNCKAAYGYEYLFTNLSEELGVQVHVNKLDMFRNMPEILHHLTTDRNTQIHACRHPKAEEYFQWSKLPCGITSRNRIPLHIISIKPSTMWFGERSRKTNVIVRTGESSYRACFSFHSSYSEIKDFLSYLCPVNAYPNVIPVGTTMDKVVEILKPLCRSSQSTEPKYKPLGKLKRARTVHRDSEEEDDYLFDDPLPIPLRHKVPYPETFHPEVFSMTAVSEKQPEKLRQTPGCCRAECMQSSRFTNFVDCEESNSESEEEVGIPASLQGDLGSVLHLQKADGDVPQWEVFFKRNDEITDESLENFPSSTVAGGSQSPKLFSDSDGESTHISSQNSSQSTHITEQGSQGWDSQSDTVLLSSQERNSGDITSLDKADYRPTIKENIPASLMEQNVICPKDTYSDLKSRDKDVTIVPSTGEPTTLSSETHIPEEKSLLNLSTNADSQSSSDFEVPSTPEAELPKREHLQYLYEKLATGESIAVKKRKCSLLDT

Structure (SMILES)	IC50
COc1ccc(O)c(/C=N/Nc2nc(Nc3ccccc3)nc(-n3nc(C)cc3C)n2)c1	2.23 µM
Cc1cc(C)n(-c2nc(Nc3ccccc3C(F)(F)F)nc(-n3nc(C)cc3C)n2)n1	5 µM
O=C(CCCSc1ccccc1)Nc1nc(-c2ccccn2)cs1	9.58 µM
COc1ccc(C(=O)c2c(C(F)(F)F)oc3c2C(=O)c2ccccc2C3=O)cc1OC	> 20 µM (inactive)
CCCCCCCCC/C(=N\O)c1ccccn1	11 µM
C/C(=N\O)c1ccccc1C(=O)O	3.62 µM
COc1cccc(N=Nc2c(N)[nH]n3c(=O)cc(-c4ccccc4)nc23)c1	16.2 µM

Further lines, results first:

IC50	Structure (SMILES)
4.68 µM	O=c1c2ccccc2nc(N/N=C/c2c(O)ccc3ccccc23)n1O
1.5 µM	COc1cccc(/C=N/Nc2nc(Nc3ccccc3)nc(-n3nc(C)cc3C)n2)c1O
> 20 µM (inactive)	N#CC1=C(N)Oc2n[nH]c(-c3cccs3)c2C1c1ccoc1 (stereo unspecified)
3.64 µM	Oc1ccc2ccccc2c1C=NC12CN3CCN(CN(C3)C1)C2
16.4 µM	Nc1[nH]n2c(=O)c3c(nc2c1N=Nc1ccc(Cl)cc1)CCCC3
15.5 µM	CCN(CC)c1ccc(/C=N/Nc2nc3ccccc3[nH]2)c(O)c1
> 20 µM (inactive)	CN1/C(=N\O)c2cccc3cccc1c23
> 20 µM (inactive)	Cc1nnc(-c2ccccc2)c(=O)n1/N=C/c1c(O)ccc2ccccc12
2.65 µM	COc1ccc(Nc2nc(NCc3ccco3)nc(N/N=C/c3ccccc3)n2)cc1
